Source: ChEMBL document CHEMBL5512634, “Sulfone-based human liver pyruvate kinase inhibitors - Design, synthesis and in vitro bioactivity” (Eur J Med Chem, 2024)
Active and inactive are the calls of the source. The rule behind the calls is not given here.

What was measured:
HepG2 = test: Cytotoxicity against PKM2 knock out human HepG2 cells at 1 to 10 uM measured for 24 to 72 hrs; format: toxicity, cell-based; conditions: hepg2, 10 µM, dose lower 1 µM, time lower 24 hrs, dose upper 10 µM, time upper 72 hrs
Pyruvate kinase PKLR [1] = target: T1, Pyruvate kinase PKLR (Homo sapiens, UniProt P30613); test: Inhibition of PKR (unknown origin)
Target sequence in this assay (P30613 whole entry, looked up, the tested form may be a part): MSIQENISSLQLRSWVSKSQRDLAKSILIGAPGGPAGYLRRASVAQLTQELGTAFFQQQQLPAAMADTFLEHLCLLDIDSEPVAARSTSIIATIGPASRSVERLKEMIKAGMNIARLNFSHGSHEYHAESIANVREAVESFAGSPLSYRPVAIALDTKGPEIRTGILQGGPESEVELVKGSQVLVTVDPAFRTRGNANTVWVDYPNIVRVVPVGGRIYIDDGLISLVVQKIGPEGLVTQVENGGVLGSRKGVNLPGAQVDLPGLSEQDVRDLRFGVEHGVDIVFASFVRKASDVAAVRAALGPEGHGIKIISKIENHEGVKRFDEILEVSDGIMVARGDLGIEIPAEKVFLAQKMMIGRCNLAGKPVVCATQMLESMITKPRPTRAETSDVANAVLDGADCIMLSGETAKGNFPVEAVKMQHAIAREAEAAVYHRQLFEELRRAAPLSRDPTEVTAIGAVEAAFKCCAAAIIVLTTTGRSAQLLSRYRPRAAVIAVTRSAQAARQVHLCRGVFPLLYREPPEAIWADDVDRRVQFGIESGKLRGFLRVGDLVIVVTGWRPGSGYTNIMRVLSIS

Pyruvate kinase PKLR [2] = target: T1, Pyruvate kinase PKLR; test: Inhibition of full length N-terminal His-tagged human PKL (2 to 543 residues) expressed in Escherichia coli by kinase Glo luminescence based plate reader assay
Target sequence in this assay (P30613 whole entry, the tested form may be a part): as the sequence (P30613 whole entry, looked up, the tested form may be a part) above

Pyruvate kinase PKLR [3] = target: T1, Pyruvate kinase PKLR; test: Inhibition of full length N-terminal His-tagged human PKL (2 to 543 residues) expressed in Escherichia coli at 10 uM by kinase Glo luminescence based plate reader assay relative to control
Target sequence in this assay (P30613 whole entry, looked up, the tested form may be a part): as above

`O=S1(=O)Oc2c(ccc(O)c2O)-c2cc(O)c(O)cc21` was tested, and the Activity (HepG2) was “Non-Toxic”.
`O=S1(=O)Oc2cc(O)c(O)c(O)c2-c2cc(O)c(O)cc21` showed an IC50 (Pyruvate kinase PKLR [1]) of 180 nM and an IC50 (Pyruvate kinase PKLR [2]) of 70 nM.
With `O=S1(=O)Oc2c(ccc(O)c2O)-c2cc(O)ccc21` the inhibition (Pyruvate kinase PKLR [3]) was “Active”.
